Assay results reported in PMC6930638, “The Masked Polar Group Incorporation (MPGI) Strategy in Drug Design: Effects of Nitrogen Substitutions on Combretastatin and Isocombretastatin Tubulin Inhibitors” (Molecules, 2019).
In brackets after ≈: the same amount, converted by molar mass.

Experiments:
[1] = system: rat primary pancreatic cells; assay: Toxicity against rat primary pancreatic cells (MTT); conditions: for live cells with respect to the non-treated control (means ± S.E.M.): rat, 7 h, pH 7.4
Experimental: The toxicity of the compounds against rat primary pancreatic cells was evaluated by the MTT protocol (Table 2). […] Sodium taurocholate (NaTc) was also used at high concentrations as a model of acute pancreatitis in vitro.
Rat primary pancreatic cells were isolated as previously described. Afterwards, pancreatic cells were resuspended in Na-HEPES solution (pH 7.4) containing 14 mM glucose, 1% essential amino acid mixture, 1% (w/v) BSA, 0.01% (w/v) STI, 0.5 mM CaCl2 and incubated (5% CO2, at 37 °C) for 7 h in the absence (non-treated control) or the presence of compounds at different concentrations. After the treatment, cells were incubated (5% CO2, at 37 °C) with 0.5 mg/mL MTT for 2 h and the formazan crystals were solubilized with DMSO (v/v). The optical density was read at 570 nm with a reference wavelength of 630 nm. Non-treated cell viability was set as 100%.

[2] = system: HeLa, HT-29 and MCF-7 human tumor cell lines; assay: Antiproliferative activity over the three human tumor cell lines (MTT); format: cell-based; conditions: Homo sapiens, range over the cell lines, Table S1; read-out: Cytotoxicity range (range of antiproliferative IC50 values)
[3] = Aqueous solubility determination (shake flask, UV); format: physicochemical; conditions: phosphate buffer, pH 7, aqueous buffer, thermodynamic from solid, phosphate buffer pH 7.0, 48 h stirring, filtered, UV; read-out: Solub.
Experimental: One of the expected effects of introducing nitrogen substitutions on combretastatin and isocombretastatin analogues, is an increase in aqueous solubility. Solubility was spectrophotometrically determined in phosphate buffer at pH 7. UV absorbance of soluble compounds was measured after shaking and microfiltration. […] In addition, aqueous solubilities of the corresponding ammonium salts are over 1 mg/mL.
This great improvement is probably due to the symmetry reduction, combined with an increased polarity for 2g.
Compounds were stirred in a solution of phosphate buffer at pH 7.0 (1–2 mg of compound in 300 µL of buffer) during 48 h. After that, the samples were filtered over a […] filter to discard the insoluble residues. In order to determine the maximum wavelength of absorbance for each compound, a scan between 270 and 400 nm was performed. Once the wavelength was selected, a calibration line was performed and the concentration of the stirred and filtered samples was measured.

Row | solubility at 48 h [3] [µg/mL] | SMILES | toxicity against primary pancreatic cultured cells [1] | live cells with respect to the non-treated control (means ± S.E.M.) ([1]; 0.25 µM) [%] | live cells with respect to the non-treated control (means ± S.E.M.) ([1]; 0.5 µM) [%] | IC50 [2] [nM]
1 | 11 (≈ 34.9 µM) | COc1cc(C(=O)c2cccc(N(C)C)c2)cc(OC)c1OC [Compound 1f, (3-(Dimethylamino)phenyl)(3,4,5-trimethoxyphenyl)methanone] | very low toxicity | 106.59 ± 17.60 | 95.97 ± 10.55 | 180 to 460
2 | 20 (≈ 58.4 µM) | COc1cc(C(=O)c2ccnc(N3CCCC3)c2)cc(OC)c1OC [Compound 1h, (2-(Pyrrolidin-1-yl)pyridin-4-yl)(3,4,5-trimethoxyphenyl)methanone] | very low toxicity | 103.84 ± 9.20 | 102.59 ± 14.73 | 17 to 71
3 | 13.5 (≈ 42.9 µM) | C=C(c1ccc(N(C)C)nc1)c1cc(OC)c(OC)c(OC)c1 [Compound 3b, N,N-Dimethyl-5-(1-(3,4,5-trimethoxyphenyl)vinyl)pyridin-2-amine] | very low toxicity | 112.81 ± 19.30 | 94.06 ± 13.13 | 81 to 277
4 | 44 (≈ 140 µM) | COc1cc(C=Cc2ccc(N(C)C)nc2)cc(OC)c1OC [Compound 8b, N,N-dimethyl-5-(3,4,5-trimethoxystyryl)pyridin-2-amine] | very low toxicity | 94.31 ± 11.83 | 91.65 ± 13.88 | 57 to 80
